Literature values, collected in patent EP2007386B1, “CAMPTOTHECIN-ANALOG WITH A NOVEL, FLIPPED LACTONE-STABLE, E-RING AND METHODS FOR MAKING AND USING SAME” (BIONUMERIK PHARMACEUTICALS, INC., priority 2006, dated 2007).
“Also recorded” adds a separate entry of the source. Read-outs that look alike come from different tables or passages of the source.

Tests used:
[1] = et al
angiogenesis = conditions: mice cornea model; dose levels of 210 mg/kg
[2] = clinical studies in Japan alone
[3] = system: advanced malignant melanoma; conditions: fifteen patients, 90-360 mg/m^2 repeated every 2 weeks
[4] = for Non-Hematologic Toxicity No. of Patients With: Cystitis / Non-Hematologic Toxicity No. of Patients With: Diarrhea: 5-day Course; for Number of Patients with Non-Hematologic Toxicity: Cystitis / Number of Patients with Non-Hematologic Toxicity: Diarrhea: Single-Dose Method
[5] = not given; remark: listed apart in the source
[6] = Rothenberg, 90mg QWx 4 Q42 days, 32 pts, 180mg/m^2/wk (50-180)
[7] = 15 mg/m^2x5, 9 patients treated
[8] = 17 mg/m^2x5, 5 patients treated
[9] = 20 mg/m^2x5, 10 patients treated
[10] = 5-Day Course (27 Patients Total), 4 wks
[11] = 5-Day Course (27 Patients Total), 8 wks
[12] = 5-Day Course (27 Patients Total), 12 wks
[13] = Single-Dose Method (34 Patients Total), 3 wks
[14] = Single-Dose Method (34 Patients Total), 6 wks
[15] = Single-Dose Method (34 Patients Total), 9 wks
[16] = Single-Dose Method (34 Patients Total), 12 wks

## CCc1c2c(nc3ccc(OC(=O)N4CCC(N5CCCCC5)CC4)cc13)-c1cc3c(c(=O)n1C2)COC(=O)[C@]3(O)CC [CPT-11, 7-ethyl-10-[4-(1-piperidino)-1-piperidino]carbonyloxycamptothecin]
[1]; Clavel, 90 min. QDx 3 Q21 Days, 37 pts, 115mg/m^2/d (33-115)
  Tumor Type (responses): Breast (1 PR); also recorded: Mesothelioma
[1]; Clavel, 90 min. QDx 3 Q21 Days, 37 pts, 115mg/m^2/d (33-115), * = Dose Limiting Toxicity
  Toxicity: Neutropenia*; also recorded: diarrhea,; also recorded: vomiting,
[1]; Culine, 90 min. Q21 days, 59 pts, 150mg/m^2/wk (50-150)
  Tumor Type (responses): Esophagus; also recorded: (1 PR) cervix; also recorded: (1 PR) renal; also recorded: (1 PR) Ovarian
[1]; Culine, 90 min. Q21 days, 59 pts, 150mg/m^2/wk (50-150), * = Dose Limiting Toxicity
  Toxicity: Fatigue; also recorded: Stomatitis; also recorded: Neutropenia*; also recorded: diarrhea*; also recorded: vomiting,; also recorded: Alopecia
[1]; Negoro, 30 min Infusion Weekly, 17 pts, 100mg/m^2 (50-150)
  Tumor Type (responses): NS CLC (2 PRs)
[1]; Negoro, 30 min Infusion Weekly, 17 pts, 100mg/m^2 (50-150), * = Dose Limiting Toxicity
  Toxicity: neutropenia* and diarrhea* and N/V and alopecia, and Liver
[1]; Ohe, 120 hr CI Q3wks, 36 pts, 40mg/m^2/d (5-40)
  Tumor Type (responses): None
[1]; Ohe, 120 hr CI Q3wks, 36 pts, 40mg/m^2/d (5-40), * = Dose Limiting Toxicity
  Toxicity: diarrhea*; also recorded: thrombocytopenia; also recorded: Anemia
[1]; [6]
  Toxicity: neutropenia,; also recorded: vomiting,; also recorded: Alopecia
  Tumor Type (responses): Colon Ca
[1]; Rowinsky, 90 min Infusion Q21 day, 32 pts, 240mg/m^2 (100-345)
  Tumor Type (responses): Colon Cancer (1 PR); also recorded: Cervix Ca
[1]; Rowinsky, 90 min Infusion Q21 day, 32 pts, 240mg/m^2 (100-345), * = Dose Limiting Toxicity
  Toxicity: Neutropenia*; also recorded: vomiting,; also recorded: diarrhea; also recorded: pain, flushing
angiogenesis
  effect on neovascularization: significant reduction of neovascularization
[2]
  patient deaths directly attributable to drug toxicity: approximately 100

## CC[C@@]1(O)C(=O)OCc2c1cc1n(c2=O)Cc2cc3ccccc3nc2-1 [CPT sodium]
Doses of 20 to 30 mg/m^2, fifteen patients, intravenous push
  patients with dose limiting bladder toxicity: three
Doses of 30 and 44 mg/m^2
  additional patients with bladder toxicity: two
Eight patients with measurable disease, 5-day courses at dose levels associated with toxicity
  clinical benefit: No clinical benefit
[3]
  patients with less pronounced transient tumor regression: three
  patients with myelosuppression: 11
[3]; rapid IV injection
  patients with a 50% or greater decrease in tumor diameter: None
[4]; 5-Day Course, 27 patients, P<0.05
  Cystitis, 5-Day Course (% of 27 Patients): 48 (P<0.05) %
[4]; 11 mg/m^2x5, 2 patients treated
  Non-Hematologic Toxicity No. of Patients With: Cystitis: 1
[4]; [7]
  Non-Hematologic Toxicity No. of Patients With: Cystitis: 4
  Non-Hematologic Toxicity No. of Patients With: Diarrhea: 1
[4]; [8]
  Non-Hematologic Toxicity No. of Patients With: Cystitis: 2
  Non-Hematologic Toxicity No. of Patients With: Diarrhea: 4
[4]; [9]
  Non-Hematologic Toxicity No. of Patients With: Cystitis: 6
  Non-Hematologic Toxicity No. of Patients With: Diarrhea: 4
[4]; 22 mg/m^2x5, 1 patient treated
  Non-Hematologic Toxicity No. of Patients With: Diarrhea: 1
[4]; Single Dose, 34 patients
  Cystitis, Single Dose (% of 34 Patients): 24%
[4]; 100 mg/m^2, 6 patients treated
  Number of Patients with Non-Hematologic Toxicity: Cystitis: 2
[4]; 110 mg/m^2, 2 patients treated
  Number of Patients with Non-Hematologic Toxicity: Cystitis: 1
  Number of Patients with Non-Hematologic Toxicity: Diarrhea: 1
[4]; 120 mg/m^2, 7 patients treated
  Number of Patients with Non-Hematologic Toxicity: Cystitis: 2
  Number of Patients with Non-Hematologic Toxicity: Diarrhea: 4
[4]; 180 mg/m^2, 9 patients treated
  Number of Patients with Non-Hematologic Toxicity: Cystitis: 3
  Number of Patients with Non-Hematologic Toxicity: Diarrhea: 2
Gastrointestinal cancer; [10]
  Objective Results: Stable (patients): 12
  Objective Results: Worse (patients): 14
Gastrointestinal cancer; 5-Day Course (27 Patients Total), 4 wks after start of therapy
  Objective Results: Improved (patients): 1
Gastrointestinal cancer; [11]
  Objective Results: Stable (patients): 7
  Objective Results: Worse (patients): 20
Gastrointestinal cancer; [12]
  Objective Results: Stable (patients): 6
  Objective Results: Worse (patients): 21
Gastrointestinal cancer; [13]
  Objective Results: Stable (patients): 17
  Objective Results: Worse (patients): 13
Gastrointestinal cancer; Single-Dose Method (34 Patients Total), 3 wks after start of therapy
  Objective Results: Improved (patients): 4
Gastrointestinal cancer; [14]
  Objective Results: Improved (patients): 2
  Objective Results: Stable (patients): 11
  Objective Results: Worse (patients): 21
Gastrointestinal cancer; [15]
  Objective Results: Improved (patients): 2
  Objective Results: Stable (patients): 8
  Objective Results: Worse (patients): 24
Gastrointestinal cancer; [16]
  Objective Results: Stable (patients): 6
  Objective Results: Worse (patients): 28
Gastrointestinal cancer; after 2 months (8 or 9 weeks), of 61 patients
  patients with evidence of partial objective improvement: two
Gastrointestinal cancer; at 3 months, of 61 patients
  patients who showed improvement: none

## CC[C@@]1(O)C(=O)OCc2c1cc1n(c2=O)Cc2cc3ccccc3nc2-1 [CPT, (S)-4-Ethyl-4-hydroxy-1 H-pyrano[3',4':6,7]indolizino[1,2-b]quinoline-3,14(4H,12H)-dione]
[5]; excluding the five patients with impaired excretion
  mean urine recovery of CPT: 22.8%
[5]; over the first 48 hours, IV camptothecin sodium 0.5 to 10.0 mg/kg
  mean urine recovery of CPT: 17.4%
